Measurements as given in patent US10258042B2, “Substituted pyrazolylpyrazole derivative and use of same as herbicide” (KYOYU AGRI CO., LTD., priority 2015, dated 2019).

Legend:
Type in all cases: in vivo
Oryza sativa = assay: Paddy herbicidal activity test, phytotoxicity to transplanted rice; conditions: rice plants in the 2.0 leaf stage transplanted, 30 days, 30° C.
Method: (§1) Rice paddy soil was filled into a 1/10000 are pot followed by the addition of suitable amounts of water and chemical fertilizer, kneading, seeding with Echinochloa crus-galli, Monochoria vaginalis and Scirpus juncoides and maintaining in an irrigated state at a water depth of 3 cm.
(§2) Wettable powders of Target Compound (I) shown in Table 1 prepared in compliance with the preparation examples were diluted with a suitable amount of water, rice plants in the 2.0 leaf stage were transplanted during 3.5 leaf stage of Echinochloa crus-galli, and treated by dropping in chemical in the prescribed amount per 10 are using a pipette.
(§3) After treating for 30 days in a glass greenhouse at an average atmospheric temperature of 30° C., the herbicidal efficacy thereof was investigated.
(§4) Evaluation of herbicidal efficacy was carried out by comparing growth inhibition rate (%) with an untreated group, while evaluation of phytotoxicity was carried out by comparing growth inhibition rate (%) with the state of a complete eradication group, and were evaluated at 11 levels indicated below.

Monochoria vaginalis = assay: Paddy herbicidal activity test; conditions: irrigated paddy pot, 30 days, 30° C.
Method: as §1, §2, §3, §4

Echinochloa crus-galli = assay: Paddy herbicidal activity test; conditions: irrigated paddy pot, treated at 3.5 leaf stage of Echinochloa crus-galli, 30 days, 30° C.
Method: as §1, §2, §3, §4

Scirpus juncoides = assay: Paddy herbicidal activity test; conditions: irrigated paddy pot, 30 days, 30° C.
Method: as §1, §2, §3, §4

Galinsoga parviflora = assay: Weed foliar treatment test (Test Example 4, higher leaf stage); conditions: 10 g a.i./10a; foliar spray at 4.0 to 5.0 leaf stage of Digitaria ciliaris; 20 days, 25° C.
Method: (§5) Field soil was filled into a 1/4500 are pot followed by seeding with Digitaria ciliaris and Galinsoga parviflora, covering with soil and cultivating in a glass greenhouse at an average atmospheric temperature of 25° C.
(§6) Wettable powders of Target Compound (I) shown in Table 1 prepared in compliance with the preparation examples were diluted with water to the prescribed amount of chemical and uniformly sprayed onto the weeds using 100 liters of sprayed water per 10 are when Digitaria ciliaris had grown to the 4.0 to 5.0 leaf stage (plant height: 10 cm to 15 cm).
(§7) After treating for 20 days in a glass greenhouse at an average atmospheric temperature of 25° C., the herbicidal efficacy thereof was investigated.
(§8) Evaluation of herbicidal efficacy was carried out in the same manner as the above-mentioned Test Example 1.

Digitaria ciliaris [1] = assay: as above; conditions: 10 g a.i./10a; foliar spray at 4.0 to 5.0 leaf stage of Digitaria ciliaris (plant height 10 cm to 15 cm); 20 days, 25° C.
Method: as §5, §6, §7, §8

Digitaria ciliaris [2] = assay: Weed foliar treatment test (Test Example 3); conditions: foliar spray at 1.0 to 2.0 leaf stage of Digitaria ciliaris, 3 weeks, 25° C.
Method: (§9) Soil was filled into a 1/6000 are pot followed by seeding with Digitaria ciliaris, Chenopodium album and Amaranthus retroflexus, covering with soil, and cultivating in a glass greenhouse at an average atmospheric temperature of 25° C.
as §6, with “150” for “100”, “1.0” for “4.0”, “2.0” for “5.0”, “stage.” for “stage (plant height: 10 cm to 15 cm).”
(§10) After treating for 3 weeks in a glass greenhouse at an average atmospheric temperature of 25° C., the herbicidal efficacy thereof was investigated.
as §8

Amaranthus retroflexus [3] = assay: Weed foliar treatment test (Test Example 3); conditions: foliar spray at 1.0 to 2.0 leaf stage of Digitaria ciliaris, 3 weeks, 25° C.
Method: as §9
as §6, with “150” for “100”, “1.0” for “4.0”, “2.0” for “5.0”, “stage.” for “stage (plant height: 10 cm to 15 cm).”
as §10, §8

Chenopodium album [4] = assay: Weed foliar treatment test (Test Example 3); conditions: foliar spray at 1.0 to 2.0 leaf stage of Digitaria ciliaris, 3 weeks, 25° C.; for herbicidal efficacy, Chenopodium alubum: 5 g a.i./10a; for herbicidal efficacy, Chenopodium album: 10 g a.i./10a
Method: as §9
as §6, with “150” for “100”, “1.0” for “4.0”, “2.0” for “5.0”, “stage.” for “stage (plant height: 10 cm to 15 cm).”
as §10, §8

Digitaria ciliaris [5] = assay: Farming soil treatment test; conditions: soil surface spray prior to weed growth, 30 days, 30° C.
Method: (§11) Field soil was filled into a 1/6000 are pot followed by seeding with Digitaria ciliaris, Chenopodium album and Amaranthus retroflexus and covering with soil.
(§12) Wettable powders of compounds of formula (I) shown in Table 1 prepared in compliance with the preparation examples were diluted with water to the prescribed amount of chemical and uniformly sprayed onto each soil surface layer using 100 liters of sprayed water per 10 are prior to weed growth following seeding.
as §3
(§13) Evaluation of herbicidal efficacy was carried out in the same manner as the above-mentioned Test Example 1,

Amaranthus retroflexus [6] = assay: Farming soil treatment test; conditions: soil surface spray prior to weed growth, 30 days, 30° C.
Method: as §11, §12, §3, §13

Chenopodium album [7] = assay: Farming soil treatment test; conditions: soil surface spray prior to weed growth, 30 days, 30° C.
Method: as §11, §12, §3, §13

Structure (SMILES) | phytotoxicity, Oryza sativa (Oryza sativa; 1 g a.i./10a) | phytotoxicity, Oryza sativa (Oryza sativa; 5 g a.i./10a) | herbicidal efficacy, Monochoria vaginalis (Monochoria vaginalis; 1 g a.i./10a) | herbicidal efficacy, Monochoria vaginalis (Monochoria vaginalis; 5 g a.i./10a) | herbicidal efficacy, Echinochloa crus-galli (Echinochloa crus-galli; 1 g a.i./10a) | herbicidal efficacy, Echinochloa crus-galli (Echinochloa crus-galli; 5 g a.i./10a) | herbicidal efficacy, Scirpus juncoides (Scirpus juncoides; 1 g a.i./10a) | herbicidal efficacy, Scirpus juncoides (Scirpus juncoides; 5 g a.i./10a) | herbicidal efficacy, Galinsoga parviflora (Galinsoga parviflora) | herbicidal efficacy, Digitaria ciliaris (Digitaria ciliaris [1]) | herbicidal efficacy, Digitaria ciliaris (Digitaria ciliaris [2]; 5 g a.i./10a) | herbicidal efficacy, Digitaria ciliaris (Digitaria ciliaris [2]; 10 g a.i./10a) | herbicidal efficacy, Amaranthus retroflexus (Amaranthus retroflexus [3]; 5 g a.i./10a) | herbicidal efficacy, Amaranthus retroflexus (Amaranthus retroflexus [3]; 10 g a.i./10a) | herbicidal efficacy, Chenopodium alubum (Chenopodium album [4]) | herbicidal efficacy, Chenopodium album (Chenopodium album [4]) | herbicidal efficacy, Digitaria ciliaris (Digitaria ciliaris [5]; 5 g a.i./10a) | herbicidal efficacy, Digitaria ciliaris (Digitaria ciliaris [5]; 10 g a.i./10a) | herbicidal efficacy, Amaranthus retroflexus (Amaranthus retroflexus [6]; 5 g a.i./10a) | herbicidal efficacy, Amaranthus retroflexus (Amaranthus retroflexus [6]; 10 g a.i./10a) | other results
N#Cc1cnn(-c2nn3c(c2Cl)CCCC3)c1NC(=O)CCCCl [Control agent 1.37, reference compound] | 2 (2: 20% to less than 30%) | 2 (2: 20% to less than 30%) |  |  |  |  |  |  |  |  |  |  |  |  |  |  |  |  |  |  | 
CCCC(=O)Nc1c(C#N)cnn1-c1nn2c(c1Cl)CCCC2 [Control agent 4.188, reference compound] | 2 (2: 20% to less than 30%) | 2 (2: 20% to less than 30%) | 3 (3: 30% to less than 40%) | 3 (3: 30% to less than 40%) | 2 (2: 20% to less than 30%) | 3 (3: 30% to less than 40%) | 0 (0 (exponent): 0% to less than 10% (growth inhibition rate)) | 1 (1: 10% to less than 20%) | 4 (4: 40% to less than 50%) | 0 (0 (exponent): 0% to less than 10% (growth inhibition rate)) | 1 (1: 10% to less than 20%) | 2 (2: 20% to less than 30%) | 4 (4: 40% to less than 50%) | 5 (5: 50% to less than 60%) | 3 (3: 30% to less than 40%) | 5 (5: 50% to less than 60%) | 0 (0 (exponent): 0% to less than 10% (growth inhibition rate)) | 1 (1: 10% to less than 20%) | 4 (4: 40% to less than 50%) | 4 (4: 40% to less than 50%) | herbicidal efficacy, Chenopodium album (Chenopodium album [7]; 5 g a.i./10a): 2 (2: 20% to less than 30%); herbicidal efficacy, Chenopodium album (Chenopodium album [7]; 10 g a.i./10a): 3 (3: 30% to less than 40%)
CCCCC(=O)Nc1c(C#N)cnn1-c1nn2c(c1Cl)CCCC2 [Control agent 4.191, reference compound] | 1 (1: 10% to less than 20%) | 1 (1: 10% to less than 20%) | 2 (2: 20% to less than 30%) | 2 (2: 20% to less than 30%) | 2 (2: 20% to less than 30%) | 2 (2: 20% to less than 30%) | 0 (0 (exponent): 0% to less than 10% (growth inhibition rate)) | 1 (1: 10% to less than 20%) | 3 (3: 30% to less than 40%) | 0 (0 (exponent): 0% to less than 10% (growth inhibition rate)) | 0 (0 (exponent): 0% to less than 10% (growth inhibition rate)) | 0 (0 (exponent): 0% to less than 10% (growth inhibition rate)) | 4 (4: 40% to less than 50%) | 5 (5: 50% to less than 60%) | 3 (3: 30% to less than 40%) | 2 (2: 20% to less than 30%) | 0 (0 (exponent): 0% to less than 10% (growth inhibition rate)) | 0 (0 (exponent): 0% to less than 10% (growth inhibition rate)) | 2 (2: 20% to less than 30%) | 3 (3: 30% to less than 40%) | herbicidal efficacy, Chenopodium album (Chenopodium album [7]; 5 g a.i./10a): 3 (3: 30% to less than 40%); herbicidal efficacy, Chenopodium album (Chenopodium album [7]; 10 g a.i./10a): 3 (3: 30% to less than 40%)
